Data from patent publication US8206732B2, “Pyrithione biocides enhanced by silver, copper, or zinc ions” (Arch Chemicals, Inc., priority 1999, dated 2012).
Values joined by “and” are separate entries in the source; they are usually repeats but may differ in a detail not shown here. Equal values may be shown once.

Assays:
[1] = tested on: Aspergillus niger ATCC 6275; test: Checkerboard MIC test, pyrithiones with zinc salts; type: cell-based; conditions: Zn(II) from ZnO, alone or in the inhibitory mixture; TSB, 28 C, 5 days
Ps. aeruginosa ATCC 9027 = test: Checkerboard MIC test, pyrithiones with zinc salts; type: cell-based, Pseudomonas aeruginosa; conditions: Zn(II) from ZnO, alone or in the inhibitory mixture; TSB, 28 C, 3 days
[2] = tested on: Aspergillus niger ATCC 6275; test: MIC in Tryptic Soy Broth, microtiter (Example 1); type: cell-based
two cultures of fungi = test: Challenge test in soluble oil metalworking fluid, fungi (Example 6); type: cell-based; conditions: soluble oil MWF, 10 ppm Zn, 100 ppm NaPT, 50 ppm ZPT or 50 ppm CuPT as in column head
[3] = tested on: Pseudomonas aeruginosa ATCC 9027; test: MIC in Tryptic Soy Broth, microtiter (Example 1); type: cell-based; conditions: TSB, 28° C., incubated 5-6 days; single agent (NaPT without Cu)
[4] = tested on: seven cultures of bacteria; test: Challenge test in soluble oil metalworking fluid, bacteria (Example 6); type: cell-based; conditions: soluble oil MWF, 10 ppm Zn, 100 ppm NaPT, 50 ppm ZPT or 50 ppm CuPT as in column head
[5] = tested on: mixed bacteria (Pseudomonas aeruginosa 9027, Escherichia coli 8739, Pseudomonas fluorescens 12201, Pseudomonas rubescens 12202, Pseudomonas putida); test: Various mixtures of NaPT and Zn(II) against bacteria in 5% metalworking fluid (Example 8, Table 10a); type: cell-based, Pseudomonas spp.
[6] = tested on: E. coli 8739 free-living cells; test: Viable free-living cells in bulk metalworking fluid (Example 5); type: cell-based, Escherichia coli; conditions: 10% TSB; 100 PPM NaPT, 10 PPM Zn (II) or both; 4 days after treatment
[7] = tested on: Pseudomonas aeruginosa NCIMB 6749; test: Checkerboard MIC test, pyrithiones with zinc salts; type: cell-based; conditions: Zn(II) alone or Zn(II) concentration in the inhibitory mixture; TSB, 28 C, 3 days
E. coli 8739 biofilm = test: Viable biofilm cells on discs in metalworking fluid (Example 5); type: cell-based, Escherichia coli; conditions: 10% TSB, polycarbonate disc; 100 PPM NaPT, 10 PPM Zn (II) or both; 4 days after treatment
[8] = tested on: Fusarium sp. and Cephalosporium sp.; test: Various mixtures of NaPT and Zn(II) against fungi in 5% metalworking fluid (Example 8, Table 10b); type: cell-based
Fusarium sp. biofilm = test: Viable biofilm cells on discs in metalworking fluid (Example 5); type: cell-based; conditions: polycarbonate disc, 100 PPM NaPT, 10 PPM Zn (II) or both, 4 days after treatment
Method: (§1) Experiments were conducted to investigate the efficacy of the composition of the present invention to inhibit the survival, growth, and proliferation of free-living and biofilm populations of bacteria and fungi in metalworking fluids. […] Metalworking fluids (MWF) employed included 5% soluble oil MWF, 5% semi-synthetic MWF, or 5% synthetic MWS. For testing against bacteria, metalworking fluids were supplemented with 2% (weight-to-weight ratio (w:w)) of 5 g/L yeast extract (Difco), Metalworking fluids were supplemented with 2% (weight-to-weight (w:w)) of Tryptic Soy Broth (Difco) for fungal tests.
(§2) For each experiment, three ml of a 5% metalworking fluid was added to each of twelve, sterile, 16 mm×150 mm glass culture tubes. […] Fusarium sp. was added to the tubes to final concentrations of 10^5 spores/ml for the fungal tests. Tubes incubated for 3 days at 28° C. and 180 rpms.
(§3) After the treatments additions were performed, the culture tubes resumed incubation at 28° C., 180 rpms for an additional 4 days.
(§4) After 4 days, culture tubes were removed from the incubator and viable counts of organisms from the bulk MWF fluid and the biofilm were determined using serial dilution and drop plating techniques. For biofilms, polycarbonate discs were removed from tubes, dip-rinsed in three successive washes of de-ionized water to remove loosely attached cells, and transferred to 25 mm×150 mm culture tubes containing 10 ml of sterile, de-ionized water. Biofilms were removed from discs and resuspended by vortexing tubes for 30 seconds. Bacteria were plated on to R2A Agar plates and incubated at 37° C. Fungi were plated onto Malt Agar plates and incubated at 28° C. Mean colony forming units per ml (for bulk) and per square cm (cm^2) biofilm were determined for each experimental treatment.

[9] = tested on: Staphylococcus aureus ATCC 27217; test: Checkerboard MIC test, pyrithiones with zinc salts; type: cell-based; conditions: Zn(II) alone or Zn(II) concentration in the inhibitory mixture; TSB, 28 C, 3 days
Fusarium sp. = test: Checkerboard MIC test, pyrithiones with zinc salts; type: cell-based; conditions: Zn(II) alone or Zn(II) concentration in the inhibitory mixture; TSB, 28 C, 5 days
Method: Mixtures of pyrithione and zinc or silver in various proportions were tested for relative efficacy by a modification of the procedure described by Dougherty, et al.
Equal volumes of bacteria (10^6 cells/ml) or fungi (10^5 spores/ml) were added to each microtiter plate well. The plates were incubated at 28 C for 3 days (bacteria) or 5 days (fungi), and the minimum inhibitory concentration (MIC) of biocide was determined. The Fractional Inhibitory Concentration (FIC=concentration of biocide in an inhibitory mixture divided by the MIC of the pure biocide) was determined, and the FIC Index (sum of the two FIC's) was calculated. The type of interaction was categorized according to the magnitude of the Index: Synergistic (<1), Additive (1), or Antagonistic (>1).

[10] = tested on: Fusarium sp. free-living cells; test: Viable free-living cells in bulk metalworking fluid (Example 5); type: cell-based; conditions: 100 PPM NaPT, 10 PPM Zn (II) or both, 4 days after treatment
Method: as §1, §2, §3, §4

[11] = semi-synthetic, Zn (II) 10 PPM, Day 1
[12] = semi-synthetic, Zn (II) 10 PPM, Day 2
[13] = semi-synthetic, Zn (II) 10 PPM, Day 7
[14] = semi-synthetic, Zn (II) 20 PPM, Day 1
[15] = semi-synthetic, Zn (II) 20 PPM, Day 2
[16] = semi-synthetic, Zn (II) 20 PPM, Day 7
[17] = semi-synthetic, Zn (II) 30 PPM, Day 1
[18] = semi-synthetic, Zn (II) 30 PPM, Day 2
[19] = semi-synthetic, Zn (II) 30 PPM, Day 7
[20] = semi-synthetic, Zn (II) 100 PPM, Day 1
[21] = semi-synthetic, Zn (II) 100 PPM, Day 4
[22] = semi-synthetic, Zn (II) 500 PPM, Day 1
[23] = semi-synthetic, Zn (II) 500 PPM, Day 4
[24] = synthetic, Zn (II) 10 PPM, Day 1
[25] = synthetic, Zn (II) 20 PPM, Day 1

[O]=[Zn] [ZnO]
MIC Zn(II) [1]: >1645 ppm
MIC Zn(II) (Ps. aeruginosa ATCC 9027): >1645 ppm

On1ccccc1=S.On1ccccc1=S.[Cu] [CuPT2, copper pyrithione]
molar MIC ([2]; Aspergillus niger): 51 µM
MIC ([2]; TSB, 28° C., incubated 7-8 days, single agent (NaPT without Cu)): 16 ppm
FUNGI (cfu/ml) (two cultures of fungi; DAY 0): 2.4 × 10^5 cfu/ml
FUNGI (cfu/ml) (two cultures of fungi; DAY 6): 1000 cfu/ml
FUNGI (cfu/ml) (two cultures of fungi; DAY 13): 680 cfu/ml
FUNGI (cfu/ml) (two cultures of fungi; DAY 20): 370 cfu/ml
MIC [3]: >1024 ppm
BACTERIA (cfu/ml) ([4]; DAY 0): 3.2 × 10^7 cfu/ml
BACTERIA (cfu/ml) ([4]; DAY 6): 1.5 × 10^7 cfu/ml
BACTERIA (cfu/ml) ([4]; DAY 13): 9.7 × 10^6 cfu/ml
BACTERIA (cfu/ml) ([4]; DAY 20): 1.9 × 10^6 cfu/ml

O=S(=O)([O-])[O-].[Zn+2] [ZnSO4]
Bacteria/ml [5, 11]: 170 Bacteria/ml
Bacteria/ml [5, 12]: 3.2 × 10^5 Bacteria/ml
Bacteria/ml [5, 13]: 4.8 × 10^4 Bacteria/ml
Bacteria/ml [5, 14]: 1.5 × 10^5 Bacteria/ml
Bacteria/ml [5, 15]: 1.4 × 10^4 Bacteria/ml
Bacteria/ml [5, 16]: 4.0 × 10^3 Bacteria/ml
Bacteria/ml [5, 17]: 1.7 × 10^3 Bacteria/ml
Bacteria/ml [5, 18]: 1.5 × 10^5 Bacteria/ml
Bacteria/ml [5, 19]: 1.3 × 10^5 Bacteria/ml
Bacteria/ml [5, 20]: 4.9 × 10^4 Bacteria/ml
Bacteria/ml [5, 21]: 5.7 × 10^4 Bacteria/ml
Bacteria/ml [5, 22]: 9.5 × 10^4 Bacteria/ml
Bacteria/ml [5, 23]: 1.1 × 10^5 Bacteria/ml
Bacteria/ml [5, 24]: 30 Bacteria/ml
Bacteria/ml [5, 25]: 190 Bacteria/ml
viable free-living microorganisms [6]: 5.8 × 10^8 cells/ml
MIC Zn(II) [7]: >200 ppm and <200 ppm
viable biofilm microorganisms (E. coli 8739 biofilm): 6.5 × 10^5 cells/cm^2
Fungi/ml [8, 11]: 1.0 × 10^4 Fungi/ml
Fungi/ml [8, 12]: 5.0 × 10^3 Fungi/ml
Fungi/ml [8, 13]: 4.8 × 10^2 Fungi/ml
Fungi/ml [8, 14]: 1.2 × 10^4 Fungi/ml
Fungi/ml [8, 15]: 1.6 × 10^4 Fungi/ml
Fungi/ml [8, 16]: 4.0 × 10^3 Fungi/ml
Fungi/ml [8, 17]: 1.2 × 10^4 Fungi/ml
Fungi/ml [8, 18]: 1.5 × 10^4 Fungi/ml
Fungi/ml [8, 19]: 1.3 × 10^3 Fungi/ml
Fungi/ml [8, 20]: 3.3 × 10^4 Fungi/ml
Fungi/ml [8, 21]: 1.1 × 10^4 Fungi/ml
Fungi/ml [8, 22]: 4.4 × 10^4 Fungi/ml
Fungi/ml [8, 23]: 2.0 × 10^4 Fungi/ml
Fungi/ml ([8]; semi-synthetic, Zn (II) 1000 PPM, Day 1): 4.1 × 10^4 Fungi/ml
Fungi/ml ([8]; semi-synthetic, Zn (II) 1000 PPM, Day 4): 1.0 × 10^4 Fungi/ml
Fungi/ml [8, 24]: 7.5 × 10^4 Fungi/ml
Fungi/ml ([8]; synthetic, Zn (II) 10 PPM, Day 2): 3.1 × 10^4 Fungi/ml
Fungi/ml ([8]; synthetic, Zn (II) 10 PPM, Day 7): 1.4 × 10^4 Fungi/ml
Fungi/ml [8, 25]: 3.9 × 10^4 Fungi/ml
Fungi/ml ([8]; synthetic, Zn (II) 20 PPM, Day 2): 2.2 × 10^4 Fungi/ml
Fungi/ml ([8]; synthetic, Zn (II) 20 PPM, Day 7): 1.3 × 10^4 Fungi/ml
Fungi/ml ([8]; synthetic, Zn (II) 30 PPM, Day 1): 4.2 × 10^4 Fungi/ml
Fungi/ml ([8]; synthetic, Zn (II) 30 PPM, Day 2): 2.1 × 10^4 Fungi/ml
Fungi/ml ([8]; synthetic, Zn (II) 30 PPM, Day 7): 5.0 × 10^3 Fungi/ml
Fungi/ml ([8]; synthetic, Zn (II) 100 PPM, Day 1): 2.1 × 10^4 Fungi/ml
Fungi/ml ([8]; synthetic, Zn (II) 100 PPM, Day 4): 6.0 × 10^3 Fungi/ml
Fungi/ml ([8]; synthetic, Zn (II) 500 PPM, Day 1): 9.0 × 10^3 Fungi/ml
Fungi/ml ([8]; synthetic, Zn (II) 500 PPM, Day 4): 5.0 × 10^3 Fungi/ml
Fungi/ml ([8]; synthetic, Zn (II) 1000 PPM, Day 1): 4.0 × 10^3 Fungi/ml
Fungi/ml ([8]; synthetic, Zn (II) 1000 PPM, Day 4): 2.0 × 10^3 Fungi/ml
Fungi/ml ([8]; synthetic, Zn (II) 5000 PPM, Day 1): 2.0 × 10^3 Fungi/ml
Fungi/ml ([8]; synthetic, Zn (II) 5000 PPM, Day 4): 4.0 × 10^3 Fungi/ml
viable biofilm microorganisms (Fusarium sp. biofilm; 5% semisynth. MWF): 27 cells/cm^2
viable biofilm microorganisms (Fusarium sp. biofilm; 5% synthetic MWF): 1.4 × 10^5 cells/cm^2
viable biofilm microorganisms (Fusarium sp. biofilm; 100% TSB): 3.3 × 10^4 cells/cm^2
MIC Zn(II) [9]: 200 ppm
MIC Zn(II) (Fusarium sp.): >200 ppm and <200 ppm
viable free-living microorganisms ([10]; 5% semisynth. MWF): 4.6 × 10^5 cells/ml
viable free-living microorganisms ([10]; 5% synthetic MWF): 8.7 × 10^6 cells/ml
viable free-living microorganisms ([10]; 100% TSB): 3.4 × 10^6 cells/ml
